Test results published in US8822754B2, “Ecdysone receptor-based inducible gene expression system” (Intrexon Corporation, priority 2000, dated 2014).

Assays:
GAL4EcR + VP16USP [1] = assay: Transactivation of reporter genes through switch 1.2 in CHO cells; type: cell-based, Choristoneura fumiferana; conditions: switch 1.2 GAL4EcR + VP16USP, pGAL4RELuc
Protocol: (§1) This construct was prepared in the same way as in switch 1.1 above except MmRXRDEF was replaced with the D, E and F domains from spruce budworm USP (“CfUSPDEF”; SEQ ID NO: 58). The constructs used in this example are similar to those disclosed in U.S. Pat. No. 5,880,333 except that Choristoneura fumiferana USP rather than Drosophila melanogaster USP was utilized.
(§2) The cells were harvested and reporter activity was assayed.
(§3) Cells were harvested 24-48 hr after adding ligands. […] Twenty μl of lysate was assayed.

GAL4RXR + VP16CfEcR = assay: Transactivation of reporter genes through switch 1.3 in CHO cells; type: cell-based, Choristoneura fumiferana; conditions: switch 1.3 GAL4RXR + VP16CfEcR, pGAL4RELuc
Protocol: as §2, §3

VP16CfEcR [2] = assay: Transactivation of reporter genes through switch 1.7 in CHO cells; type: cell-based, Choristoneura fumiferana; conditions: switch 1.7 VP16CfEcR, pEcRELuc
Protocol: (§4) Six ecdysone response elements (“EcRE”; SEQ ID NO: 59) from the hsp27 gene were placed upstream of the promoter and a luciferase gene (SEQ ID NO: 57). This switch most probably uses endogenous RXR.
as §2, §3

GAL4EcR + VP16USP [3] = assay: Transactivation of reporter genes through switch 1.2 in 3T3 cells; type: cell-based, Choristoneura fumiferana; conditions: switch 1.2 GAL4EcR + VP16USP, pGAL4RELuc
Protocol: as §1
(§5) The cells were plated when they reached 50% confluency.
as §3

GAL4CfEcRVP16 [4] = assay: Transactivation of reporter genes through switch 1.6 in 3T3 cells; type: cell-based, Choristoneura fumiferana; conditions: switch 1.6 GAL4CfEcRVP16, pGAL4RELuc
Protocol: (§6) This construct was prepared so that both the GAL4 DNABD and the VP16AD were placed on the same molecule. GAL4DNABD (SEQ ID NO: 41) and VP16AD (SEQ ID NO: 45) were fused to CfEcRDEF (SEQ ID NO: 3) at N- and C-termini respectively.
as §5, §3

VP16CfEcR [5] = assay: Transactivation of reporter genes through switch 1.7 in 3T3 cells; type: cell-based, Choristoneura fumiferana; conditions: switch 1.7 VP16CfEcR, pEcRELuc
Protocol: as §4, §5, §3

DmVgRXR + MmRXR [6] = target: T1, DmVgRXR + MmRXR (Drosophila melanogaster, UniProt P34021, E282G/G283S/G286V); assay: Transactivation of reporter genes through switch 1.8 in 3T3 cells; type: cell-based; conditions: switch 1.8 DmVgRXR + MmRXR, pIND(SP1)LacZ
T1 construct: host or cells: CHO, NIH3T3, 293 or CV1 cells (one cell line per assay)
Text: (§7) This system was purchased from Invitrogen Corp., Carlsbad, Calif. It comprises a Drosophila melanogaster EcR (“DmEcR”) with a modified DNABD fused to VP16AD and placed under the control of a CMV promoter (SEQ ID NO: 60). Full length MmRXR (SEQ ID NO: 53) was placed under the control of the RSV promoter (SEQ ID NO: 61). The reporter, pIND(SP1)LacZ, contains five copies of a modified ecdysone response element (“EcRE”, E/GRE), three copies of an SP1 enhancer, and a minimal heat shock promoter, all of which were placed upstream to the LacZ reporter gene.
as §5, §3

GAL4CfEcRVP16 [7] = assay: Transactivation of reporter genes through switch 1.6 in 293 cells; type: cell-based, Choristoneura fumiferana; conditions: switch 1.6 GAL4CfEcRVP16, pGAL4RELuc
Protocol: as §6
(§8) The same procedures described for CHO were followed for 293 cells except that the cells were plated in biocoated plates to avoid clumping.
as §3

CfVgRXR + MmRXR = assay: Transactivation of reporter genes through switch 1.9 in 293 cells; type: cell-based, Choristoneura fumiferana; conditions: switch 1.9 CfVgRXR + MmRXR, pIND(SP1)LacZ
Protocol: This example was prepared in the same way as switch 1.8 except DinEcR was replaced with a truncated CfEcR comprising a partial A/B domain and the complete CDEF domains [SEQ ID NO: 62 (polynucleotide) and SEQ ID NO: 63 (polypeptide)].
as §8, §3

GAL4EcR + VP16USP [8] = assay: Transactivation of reporter genes through switch 1.2 in CV1 cells; type: cell-based, Choristoneura fumiferana; conditions: switch 1.2 GAL4EcR + VP16USP, pGAL4RELuc
Protocol: as §1
(§9) The same procedures described for NIH3T3 cells were followed for CV1 cells
as §3

DmVgRXR + MmRXR [9] = target: T1, DmVgRXR + MmRXR; assay: Transactivation of reporter genes through switch 1.8 in CV1 cells; type: cell-based; conditions: switch 1.8 DmVgRXR + MmRXR, pIND(SP1)LacZ
Text: as §7, §9, §3

CfVgRXR = assay: Transactivation of reporter genes through switch 1.10 in CV1 cells; type: cell-based, Choristoneura fumiferana; conditions: switch 1.10 CfVgRXR, pIND(SP1)LacZ
Protocol: This example was prepared in the same way as switch 1.9 except MmRXR (SEQ ID NO: 53) was deleted.
as §9, §3

GAL4RXR + VP16DmEcR = target: T2, GAL4RXR + VP16DmEcR (Drosophila melanogaster, UniProt P34021); assay: Transactivation of reporter genes through switch 1.4 in CHO cells; type: cell-based; set-up: expressed in transfected cells; host or cells: CHO cells (transient co-transfection); conditions: switch 1.4 GAL4RXR + VP16DmEcR, pGAL4RELuc
T2 sequence (P34021 254-878): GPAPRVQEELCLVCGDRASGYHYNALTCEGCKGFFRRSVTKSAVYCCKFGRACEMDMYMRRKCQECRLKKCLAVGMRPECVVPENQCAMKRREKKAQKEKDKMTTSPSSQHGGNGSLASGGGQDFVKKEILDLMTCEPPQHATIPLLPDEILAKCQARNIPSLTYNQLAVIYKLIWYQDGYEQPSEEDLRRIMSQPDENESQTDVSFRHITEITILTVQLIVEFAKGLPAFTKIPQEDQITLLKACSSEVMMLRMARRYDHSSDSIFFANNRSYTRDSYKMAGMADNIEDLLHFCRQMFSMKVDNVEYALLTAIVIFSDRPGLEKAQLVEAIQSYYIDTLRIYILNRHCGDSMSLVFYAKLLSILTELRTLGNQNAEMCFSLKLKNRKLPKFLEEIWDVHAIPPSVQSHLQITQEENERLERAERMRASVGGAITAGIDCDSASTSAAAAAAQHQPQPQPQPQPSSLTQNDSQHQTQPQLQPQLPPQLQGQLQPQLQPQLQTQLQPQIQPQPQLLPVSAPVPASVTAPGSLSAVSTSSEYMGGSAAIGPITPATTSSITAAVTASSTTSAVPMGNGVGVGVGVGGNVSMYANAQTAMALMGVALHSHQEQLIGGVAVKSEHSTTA
T2 sequence (P28700 206-467 partner limits assumed): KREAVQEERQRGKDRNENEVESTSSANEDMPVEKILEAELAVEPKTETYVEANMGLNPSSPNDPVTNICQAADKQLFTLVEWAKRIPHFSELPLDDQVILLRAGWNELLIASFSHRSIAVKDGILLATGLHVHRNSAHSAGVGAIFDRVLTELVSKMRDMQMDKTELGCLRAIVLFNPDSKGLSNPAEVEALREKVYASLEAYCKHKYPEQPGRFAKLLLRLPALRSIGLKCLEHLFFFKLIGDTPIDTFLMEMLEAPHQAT
Protocol: This construct was prepared in the same way as switch 1.3 except CfEcRCDEF was replaced with DmEcRCDEF (SEQ ID NO: 6).
as §2, §3

T1 sequence (P34021 whole entry E282G/G283S/G286V): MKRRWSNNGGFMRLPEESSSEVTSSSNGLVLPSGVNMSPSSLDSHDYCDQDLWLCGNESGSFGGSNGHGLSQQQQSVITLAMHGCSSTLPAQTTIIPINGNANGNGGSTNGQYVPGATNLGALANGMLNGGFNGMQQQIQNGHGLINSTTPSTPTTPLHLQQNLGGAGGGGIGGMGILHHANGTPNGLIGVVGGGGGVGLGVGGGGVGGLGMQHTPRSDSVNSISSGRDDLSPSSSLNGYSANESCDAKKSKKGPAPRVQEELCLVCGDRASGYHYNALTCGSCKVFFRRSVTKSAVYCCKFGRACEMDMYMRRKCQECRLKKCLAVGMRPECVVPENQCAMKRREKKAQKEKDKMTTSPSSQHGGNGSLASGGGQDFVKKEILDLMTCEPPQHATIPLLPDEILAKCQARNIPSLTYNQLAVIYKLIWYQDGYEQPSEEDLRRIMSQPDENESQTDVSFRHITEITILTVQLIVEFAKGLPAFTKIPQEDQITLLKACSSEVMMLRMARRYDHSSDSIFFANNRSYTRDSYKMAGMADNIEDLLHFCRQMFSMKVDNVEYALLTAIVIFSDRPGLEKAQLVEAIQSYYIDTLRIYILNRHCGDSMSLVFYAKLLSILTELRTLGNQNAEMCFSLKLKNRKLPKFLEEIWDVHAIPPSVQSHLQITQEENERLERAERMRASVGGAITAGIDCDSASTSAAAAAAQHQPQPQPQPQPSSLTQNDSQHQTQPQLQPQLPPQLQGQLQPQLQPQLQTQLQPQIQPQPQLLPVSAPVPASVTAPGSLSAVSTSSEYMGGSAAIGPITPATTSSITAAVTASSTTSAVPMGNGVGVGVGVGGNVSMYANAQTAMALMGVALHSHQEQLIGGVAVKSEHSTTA
T1 sequence (P28700 whole entry, further chain): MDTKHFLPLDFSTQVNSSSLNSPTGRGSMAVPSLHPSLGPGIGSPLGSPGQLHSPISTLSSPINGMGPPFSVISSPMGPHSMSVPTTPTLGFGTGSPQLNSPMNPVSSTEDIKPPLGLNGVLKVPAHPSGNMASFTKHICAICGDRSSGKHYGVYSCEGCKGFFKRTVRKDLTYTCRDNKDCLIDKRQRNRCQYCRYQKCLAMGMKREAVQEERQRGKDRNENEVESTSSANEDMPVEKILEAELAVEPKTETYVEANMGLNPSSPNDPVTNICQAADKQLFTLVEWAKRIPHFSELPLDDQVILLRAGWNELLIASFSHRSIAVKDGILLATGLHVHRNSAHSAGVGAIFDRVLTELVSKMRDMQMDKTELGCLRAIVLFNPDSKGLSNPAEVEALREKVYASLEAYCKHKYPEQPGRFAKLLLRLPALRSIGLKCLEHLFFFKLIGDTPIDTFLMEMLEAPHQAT

SMILES: CCc1c(OC)cccc1C(=O)NN(C(=O)c1cc(C)cc(C)c1)C(C)(C)C [N-(2-ethyl-3-methoxybenzoyl)-N′-(3,5-dimethylbenzoyl)-N′-tert-butylhydrazine]
- Mean Fold Activation with 50 μM N-(2-ethyl-3-methoxybenzoyl)-N′-(3,5-dimethylbenzoyl)-N′-t-butylhydrazine (GAL4EcR + VP16USP [1]): 2 fold
- Mean Fold Activation with 50 μM N-(2-ethyl-3-methoxybenzoyl)-N′-(3,5-dimethylbenzoyl)-N′-t-butylhydrazine (GAL4RXR + VP16CfEcR): 85 fold
- Mean Fold Activation with 50 μM N-(2-ethyl-3-methoxybenzoyl)-N′-(3,5-dimethylbenzoyl)-N′-t-butylhydrazine (VP16CfEcR [2]): 36 fold
- Mean Fold Activation Through N-(2-ethyl-3-methoxybenzoyl)-N′-(3,5-dimethylbenzoyl)-N′-t-butylhydrazine (GAL4EcR + VP16USP [3]): 2 fold
- Mean Fold Activation Through N-(2-ethyl-3-methoxybenzoyl)-N′-(3,5-dimethylbenzoyl)-N′-t-butylhydrazine (GAL4CfEcRVP16 [4]): 7 fold
- Mean Fold Activation Through N-(2-ethyl-3-methoxybenzoyl)-N′-(3,5-dimethylbenzoyl)-N′-t-butylhydrazine (VP16CfEcR [5]): 1 fold
- Mean Fold Activation Through N-(2-ethyl-3-methoxybenzoyl)-N′-(3,5-dimethylbenzoyl)-N′-t-butylhydrazine (DmVgRXR + MmRXR [6]): 21 fold
- Mean Fold Activation Through N-(2-ethyl-3-methoxybenzoyl)-N′-(3,5-dimethylbenzoyl)-N′-t-butylhydrazine (GAL4CfEcRVP16 [7]): 3 fold
- Mean Fold Activation Through N-(2-ethyl-3-methoxybenzoyl)-N′-(3,5-dimethylbenzoyl)-N′-t-butylhydrazine (CfVgRXR + MmRXR): 12 fold
- Mean Fold Activation Through N-(2-ethyl-3-methoxybenzoyl)-N′-(3,5-dimethylbenzoyl)-N′-t-butylhydrazine (GAL4EcR + VP16USP [8]): 2 fold
- Mean Fold Activation Through N-(2-ethyl-3-methoxybenzoyl)-N′-(3,5-dimethylbenzoyl)-N′-t-butylhydrazine (DmVgRXR + MmRXR [9]): 12 fold
- Mean Fold Activation Through N-(2-ethyl-3-methoxybenzoyl)-N′-(3,5-dimethylbenzoyl)-N′-t-butylhydrazine (CfVgRXR): 1 fold
- Mean Fold Activation with 50 μM N-(2-ethyl-3-methoxybenzoyl)-N′-(3,5-dimethylbenzoyl)-N′-t-butylhydrazine (GAL4RXR + VP16DmEcR): 312 fold
